The values that follow come from patent US9303033B2, “Pyrazolopyrimidines and related heterocycles as CK2 inhibitors” (SENHWA BIOSCIENCES, INC., priority 2009, dated 2016).

One assay addresses CK2 ααββ (Homo sapiens (Human), UniProt P68400). Briefly: CK2 assay (cell-free, 33P-ATP, phosphocellulose filter plate). The class given is biochemical.
Another assay concerns the target recombinant human PIM2 (Homo sapiens (Human), UniProt Q9P1W9). Briefly: PIM-2 assay (33P-ATP filter binding). Type of assay: biochemical. The conditions noted are these: for PIM2: % inh […]: at […] compound.
Setting [1] is: PIM2: IC50 (5 μM ATP), 5 μM ATP.

The structures appear in SMILES notation. Read-outs that look alike come from different tables or passages of the source.

Chain of CK2 ααββ (P68400 whole entry): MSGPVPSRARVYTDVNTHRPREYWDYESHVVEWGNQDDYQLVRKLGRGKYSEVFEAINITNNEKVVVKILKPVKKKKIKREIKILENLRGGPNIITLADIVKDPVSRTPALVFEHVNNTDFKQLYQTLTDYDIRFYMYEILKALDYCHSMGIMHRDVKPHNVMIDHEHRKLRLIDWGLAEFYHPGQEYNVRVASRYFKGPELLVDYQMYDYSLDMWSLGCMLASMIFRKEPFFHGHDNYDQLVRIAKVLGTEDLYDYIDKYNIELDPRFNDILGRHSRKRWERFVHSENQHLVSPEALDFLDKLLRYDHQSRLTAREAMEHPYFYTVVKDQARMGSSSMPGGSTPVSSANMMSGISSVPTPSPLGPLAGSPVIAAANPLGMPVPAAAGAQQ
Chain of CK2 ααββ (P67870 whole entry partner): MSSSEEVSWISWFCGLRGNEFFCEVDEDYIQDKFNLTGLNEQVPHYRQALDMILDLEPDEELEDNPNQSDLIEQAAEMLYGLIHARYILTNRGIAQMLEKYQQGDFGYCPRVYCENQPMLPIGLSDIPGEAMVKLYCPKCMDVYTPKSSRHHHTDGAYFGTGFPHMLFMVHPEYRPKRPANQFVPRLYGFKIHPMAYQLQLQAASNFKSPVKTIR
Chain of recombinant human PIM2 (Q9P1W9 whole entry): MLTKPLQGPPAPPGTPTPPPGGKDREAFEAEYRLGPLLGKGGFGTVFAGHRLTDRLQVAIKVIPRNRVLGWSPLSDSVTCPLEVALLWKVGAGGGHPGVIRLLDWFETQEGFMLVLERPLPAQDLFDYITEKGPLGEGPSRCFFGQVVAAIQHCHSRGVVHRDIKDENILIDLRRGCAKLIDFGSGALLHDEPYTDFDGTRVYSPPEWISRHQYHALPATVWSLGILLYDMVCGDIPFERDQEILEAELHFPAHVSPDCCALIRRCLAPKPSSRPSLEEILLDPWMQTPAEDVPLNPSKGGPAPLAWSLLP
Protocol for recombinant human PIM2: Test compounds dissolved and diluted in DMSO (2 μl) were added to a reaction mixture comprising 10 μl of 5× Reaction Buffer (40 mM MOPS pH 7.0, 5 mM EDTA), 10 μl of recombinant human PIM2 solution (4 ng PIM-2 dissolved in dilution buffer (20 mM MOPS pH 7.0; EDTA 1 mM; 5% Glycerol; 0.01% Brij 35; 0.1%; 0.1% 2-mercaptoethanol; 1 mg/ml BSA)) and 8 ul of water.

What is called IC50 is the concentration that inhibits the measured activity by half. On to `CN1CCCN(c2cc(NC3CC3)n3ncc(/C=C4\SC(=O)NC4=O)c3n2)CC1` [Example Q3], for which the results for the IC50 at CK2 ααββ and on recombinant human PIM2 (setting [1]) were below 100 nM and 2050 nM, respectively.

At CK2 ααββ, `O=C1NC(=O)/C(=C/c2cnn3c(NCC4CC4)cc(Nc4ccc(Cl)cc4)nc23)N1` [Example I2] registered an IC50 below 100 nM.

Take `O=C1NC(=O)/C(=C/c2cnn3c(NC4CC4)cc(-c4ccnc(F)c4)nc23)S1` [Example I5]: the IC50 against CK2 ααββ was below 1000 nM; on recombinant human PIM2 (setting [1]), 218 nM.

With `C[C@@H](Nc1cc(NC2CC2)n2ncc(/C=C3\NC(=O)NC3=O)c2n1)C1CC1` [Example X2], the 50% inhibitory concentration (IC50) on CK2 ααββ was below 10 nM; on recombinant human PIM2 (setting [1]) it was 1950 nM.

For `CC(C)(C)CC(=O)N1CCC(Nc2cc(Nc3cccc(Cl)c3)nc3c(/C=C4\NC(=O)NC4=O)cnn23)CC1` [Example S5], the results for the IC50 at CK2 ααββ and on recombinant human PIM2 (setting [1]) were below 100 nM and above 2500 nM, respectively.

With `CC(CNc1cc(Nc2cc(Cl)ccc2F)nc2c(C=C3NC(=O)NC3=O)cnn12)N1CCOCC1` (racemic) [Example 515], on CK2 ααββ, the IC50 was below 10 nM.

Turning to `O=C1NC(=O)/C(=C/c2cnn3c(NC4CCN(Cc5ccccn5)CC4)cc(Nc4cccc(Cl)c4)nc23)N1` [Example V5], the IC50 on CK2 ααββ was below 1000 nM; on recombinant human PIM2 (setting [1]) it was above 2500 nM.

The molecule `O=C1NC(=O)/C(=C/c2cnn3c(NCC4(CN5CCCC5)CC4)cc(Nc4cccc(Cl)c4)nc23)N1` [Example A7] came in with an IC50 on CK2 ααββ below 100 nM.

Regarding `CC(C)Oc1cccc(Nc2cc(NC3CC3)n3ncc(/C=C4\NC(=O)NC4=O)c3n2)c1` [Example M1], the 50% inhibitory concentration (IC50) is below 10 nM against CK2 ααββ and above 2500 nM on recombinant human PIM2 (setting [1]).

Take `CS(=O)(=O)N[C@H]1CC[C@H](Nc2cc(NC3CC3)n3ncc(/C=C4\NC(=O)NC4=O)c3n2)CC1` [Example E3]: the IC50 against CK2 ααββ was below 10 nM; at recombinant human PIM2 (setting [1]), above 2500 nM.

`Cc1c(N2CCN(c3ncccc3C#N)CC2)nc2c(C=C3NC(=O)NC3=O)cnn2c1NC1CC1` [Example R46] displayed an IC50 at CK2 ααββ below 1000 nM. The “PIM2: % inh […]” value on recombinant human PIM2 stood at 68.545%.

In the case of `COC(=O)N1CCC(Nc2cc(Nc3cccc(Cl)c3)nc3c(/C=C4\NC(=O)NC4=O)cnn23)CC1` [Example T5], the IC50 at CK2 ααββ was below 100 nM; on recombinant human PIM2 (setting [1]), above 2500 nM.

In the case of `CCN1CCC(Nc2cc(Nc3cccc(Cl)c3)nc3c(/C=C4\NC(=O)NC4=O)cnn23)CC1` [Example W5], the IC50 against CK2 ααββ is below 1000 nM; on recombinant human PIM2 (setting [1]), above 2500 nM.

Regarding `CC(C)(C)OC(=O)N1CCC(CNc2cc(Nc3cccc(Cl)c3)nc3c(/C=C4\NC(=O)NC4=O)cnn23)CC1` [Example T6], the IC50 at CK2 ααββ is below 100 nM.

`O=C1NC(=O)/C(=C/c2cnn3c(NCC4(CN5CCOCC5)CC4)cc(Nc4cccc(Cl)c4)nc23)N1` [Example Z6] displayed an IC50 against CK2 ααββ below 100 nM.

For `COC(=O)N[C@H]1CC[C@H](Nc2cc(NC3CC3)n3ncc(/C=C4\NC(=O)NC4=O)c3n2)CC1` [Example C3], the IC50 against CK2 ααββ is below 10 nM; on recombinant human PIM2 (setting [1]), 679 nM.

`NCc1cccc(Nc2cc(NCC3CC3)n3ncc(/C=C4\NC(=O)NC4=O)c3n2)c1` [Example Z1] had an IC50 at CK2 ααββ below 100 nM.

Consider `O=C1NC(=O)/C(=C/c2cnn3c(NC4CC4)cc(Nc4ccccn4)nc23)N1` [Example O1], for which the results for the IC50 at CK2 ααββ and on recombinant human PIM2 (setting [1]) were below 10 nM and above 2500 nM, respectively.

For `O=C1NC(=O)/C(=C/c2cnn3c(NCc4ccccn4)cc(Nc4cccc(Cl)c4)nc23)N1` [Example H6], the figures for the IC50 on CK2 ααββ and on recombinant human PIM2 (setting [1]) were below 1000 nM and 421 nM, respectively.

Consider `O=C1NC(=O)/C(=C/c2cnn3c(NCC4CC4)cc(Nc4ccc(F)c(Cl)c4)nc23)N1` [Example D2], for which the IC50 against CK2 ααββ was below 100 nM.

Consider `O=C1NC(=O)/C(=C/c2cnn3c(NC4CC4)cc(Nc4ccc(F)c(Cl)c4)nc23)N1` [Example S1], for which the IC50 was below 10 nM on CK2 ααββ and 2040 nM on recombinant human PIM2 (setting [1]).

Consider `O=C1NC(=O)/C(=C/c2cnn3c(NC4CC4)cc(Nc4ccc(-n5cccn5)cc4)nc23)N1` [Example R1], for which the IC50 is below 10 nM against CK2 ααββ and above 2500 nM on recombinant human PIM2 (setting [1]).

On to `CNS(=O)(=O)c1cccc(-c2cc(NC3CC3)n3ncc(/C=C4\NC(=O)NC4=O)c3n2)c1` [Example Y3], for which the figures for the IC50 against CK2 ααββ and at recombinant human PIM2 (setting [1]) were below 10 nM and above 2500 nM, respectively.

For `Cc1nn2c(NC3CC3)cc(Nc3ccc(-n4cccn4)cc3)nc2c1C=C1NC(=O)NC1=O` [Example 275, 5-((5-(4-(1H-pyrazol-1-yl)phenylamino)-7-(cyclopropylamino)-2-methylpyrazolo[1,5-a]pyrimidin-3-yl)methylene)imidazolidine-2,4-dione], the IC50 against CK2 ααββ was above 1000 nM. For the same molecule, the inhibition at […] on recombinant human PIM2 (read-out: PIM2: % inh […], at 2.5 μM compound) came out at 43.4%.

`COc1cccc(-c2cc(NC3CC3)n3ncc(/C=C4\SC(=O)NC4=O)c3n2)c1` [Example H5]: the IC50 against CK2 ααββ is below 100 nM; at recombinant human PIM2 (setting [1]), 815 nM.

On CK2 ααββ, `CC(C)(CO)CNc1cc(Nc2cccc(Cl)c2)nc2c(/C=C3\NC(=O)NC3=O)cnn12` [Example V6] returned an IC50 below 100 nM.

Regarding `O=C1NC(=O)/C(=C/c2cnn3c(NC(=O)C4CCNCC4)cc(Nc4cccc(Cl)c4)nc23)N1` [Example B1, N-(5-(3-chlorophenylamino)-3-((2,5-dioxoimidazolidin-4-ylidene)methyl)pyrazolo[1,5-a]pyrimidin-7-yl)piperidine-4-carboxamide], the results for the IC50 on CK2 ααββ and at recombinant human PIM2 (setting [1]) were below 1000 nM and 2500 nM, respectively.

In the case of `O=C1NC(=O)/C(=C/c2cnn3c(SCc4ccccc4)cc(Nc4cccc(Cl)c4)nc23)N1` [Example X5], the IC50 was below 1000 nM against CK2 ααββ and 2240 nM at recombinant human PIM2 (setting [1]).

`O=C1NC(=O)/C(=C/c2cnn3c(NC4CC4)cc(Nc4cc(F)cc(F)c4)nc23)N1` [Example N1]: the IC50 on CK2 ααββ was below 10 nM; on recombinant human PIM2 (setting [1]), 1970 nM.

Take `CN(C)CC(C)(C)CNc1cc(Nc2cccc(Cl)c2)nc2c(/C=C3\NC(=O)NC3=O)cnn12` [Example M6]: the results for the IC50 on CK2 ααββ and on recombinant human PIM2 (setting [1]) were below 1000 nM and above 2500 nM, respectively.

Turning to `CC(C)Nc1cc(Nc2cccc(Cl)c2)nc2c(/C=C3\NC(=O)NC3=O)cnn12` [Example F6], the IC50 against CK2 ααββ was below 100 nM; at recombinant human PIM2 (setting [1]), above 2500 nM.

For the molecule `CC(C)CN1CCC(Nc2cc(Nc3cccc(Cl)c3)nc3c(/C=C4\NC(=O)NC4=O)cnn23)CC1` [Example R5], the IC50 on CK2 ααββ is below 100 nM; at recombinant human PIM2 (setting [1]), 2200 nM.

With `Cc1cccc(Nc2cc(NCC3CC3)n3ncc(/C=C4\NC(=O)NC4=O)c3n2)c1` [Example A2], the IC50 against CK2 ααββ is below 100 nM.

Regarding `Cc1c(N2CCN(c3ncccc3C#N)CC2)nc2c(C=C3SC(=O)NC3=O)cnn2c1NC1CC1` [Example T46], on CK2 ααββ, the IC50 is below 1000 nM. In addition, the “PIM2: % inh […]” value at recombinant human PIM2 came out at 50.998%.

For `CCN(CC)CCNc1cc(NC2CC2)n2ncc(/C=C3\SC(=O)NC3=O)c2n1` [Example O3], the results for the IC50 against CK2 ααββ and on recombinant human PIM2 (setting [1]) were below 100 nM and above 2500 nM, respectively.

Take `O=C1NC(=O)/C(=C/c2cnn3c([S+]([O-])Cc4ccccc4)cc(Nc4cccc(Cl)c4)nc23)N1` (stereo not shown) [Example Z5]: the IC50 against CK2 ααββ is below 1000 nM; at recombinant human PIM2 (setting [1]) it was 297 nM.

Turning to `O=C1NC(=O)/C(=C/c2cnn3c(NCC4CC4)cc(Nc4cccc(CN5CCOCC5)c4)nc23)N1` [Example C2], the IC50 against CK2 ααββ was below 100 nM.

As for `CC(C)N1CCC(Nc2cc(Nc3cccc(Cl)c3)nc3c(/C=C4\NC(=O)NC4=O)cnn23)CC1` [Example Q5], the IC50 against CK2 ααββ was below 100 nM; on recombinant human PIM2 (setting [1]), above 2500 nM.

As for `O=C1NC(=O)/C(=C/c2cnn3c(NCc4ccncc4)cc(Nc4cccc(Cl)c4)nc23)N1` [Example E6], the values for the IC50 on CK2 ααββ and at recombinant human PIM2 (setting [1]) were below 1000 nM and 1330 nM, respectively.

As to `CC(=O)Nc1cccc(Nc2cc(NCC3CC3)n3ncc(/C=C4\NC(=O)NC4=O)c3n2)c1` [Example Y1], the IC50 against CK2 ααββ is below 100 nM; on recombinant human PIM2 (setting [1]), above 2500 nM.

As to `O=C1NC(=O)/C(=C/c2cnn3c(NC4CC4)cc(-c4ccc(F)c(C(=O)NCCN5CCCC5)c4)nc23)N1` [Example E5], the IC50 was below 100 nM at CK2 ααββ and above 2500 nM at recombinant human PIM2 (setting [1]).

Regarding `O=C1NC(=O)/C(=C/c2cnn3c([S+]([O-])Cc4ccccc4)cc(-c4cccc(Cl)c4)nc23)N1` (stereo not shown) [Example A6], the results for the IC50 against CK2 ααββ and at recombinant human PIM2 (setting [1]) were below 100 nM and 209 nM, respectively.

In the case of `Cc1c(N2CCN(c3ccccn3)CC2)nc2c(C=C3SC(=O)NC3=O)cnn2c1NC1CC1` [Example S46], the IC50 on CK2 ααββ was below 1000 nM. Moreover, the “PIM2: % inh […]” value at recombinant human PIM2 was −19.761%.

With `O=C1NC(=O)/C(=C/c2cnn3c(Nc4cc[nH]n4)cc(Nc4cccc(Cl)c4)nc23)N1` [Example S6], the IC50 against CK2 ααββ is below 100 nM.

In the case of `CC(O)CN1CCC(Nc2cc(Nc3cccc(Cl)c3)nc3c(/C=C4\NC(=O)NC4=O)cnn23)CC1` (stereo not shown) [Example U5], the figures for the IC50 at CK2 ααββ and on recombinant human PIM2 (setting [1]) were below 1000 nM and above 2500 nM, respectively.

Regarding `CC(Oc1nc(NC2CC2)n2ncc(C=C3NC(=O)NC3=O)c2n1)c1c(Cl)ccc(F)c1Cl` (stereo not shown) [Compound L36], the IC50 against CK2 ααββ is below 10 nM; on recombinant human PIM2 (read-out: PIM2: IC50), above 1000 nM.

Consider `CCOC(=O)c1cc(F)cc(Nc2cc(NCC3CC3)n3ncc(/C=C4\NC(=O)NC4=O)c3n2)c1` [Example U1], for which the IC50 is below 100 nM against CK2 ααββ and above 2500 nM on recombinant human PIM2 (setting [1]).

At CK2 ααββ, `CC(C)C(CNc1cc(Nc2cccc(Cl)c2)nc2c(/C=C3\NC(=O)NC3=O)cnn12)N(C)C` (stereo not shown) [Example W6] came in with an IC50 below 1000 nM.

Molecule `O=C1NC(=O)/C(=C/c2cnn3c(NCC4CC4)cc(Nc4ccc(Cl)cn4)nc23)N1` [Example H2] yielded an IC50 at CK2 ααββ below 10 nM.

On CK2 ααββ, `CN1CCN(CC2(CNc3cc(Nc4cccc(Cl)c4)nc4c(/C=C5\NC(=O)NC5=O)cnn34)CC2)CC1` [Example Y6] returned an IC50 below 100 nM.

For `O=C1NC(=O)/C(=C/c2cnn3c(NCC4CC4)cc(Nc4cccc(S(=O)(=O)N5CCCC5)c4)nc23)N1` [Example F2], on CK2 ααββ, the IC50 was below 100 nM.

In the case of `O=C1NC(=O)/C(=C/c2cnn3c(NCC4CC4)cc(Nc4ccncc4)nc23)N1` [Example E2], the IC50 against CK2 ααββ was below 10 nM.

Take `CNC(=O)c1cccc(Nc2cc(NCC3CC3)n3ncc(/C=C4\NC(=O)NC4=O)c3n2)c1` [Example G2]: on CK2 ααββ, the IC50 was below 10 nM.

At CK2 ααββ, `CCOCC1(CNc2cc(Nc3cccc(Cl)c3)nc3c(/C=C4\NC(=O)NC4=O)cnn23)CC1` [Example X6] came in with an IC50 below 1000 nM.

On CK2 ααββ, `O=C1NC(=O)/C(=C/c2cnn3c(NCC4CC4)cc(Nc4cccc(O)c4)nc23)N1` [Example B2] had an IC50 below 100 nM.
